This passage reports DC50 results from US20250206724A1, “SUBSTITUTED 3-AMINO INDAZOLE DERIVATIVES AS KINASE INHIBITORS” (NERVIANO MEDICAL SCIENCES S.R.L., priority 2022, published 2025).

Structures can show the parent of a compound that is named as a salt.
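Note: compound preincubated 30 min with CDK11A-p58, then probe added and polarization (mP) read 15 min later, 0% displacement is probe plus enzyme, 100% is probe alone.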

The target in the test is T1, CDK11A (Homo sapiens, UniProt Q9UQ88).
T1 sequence (Q9UQ88 346-783): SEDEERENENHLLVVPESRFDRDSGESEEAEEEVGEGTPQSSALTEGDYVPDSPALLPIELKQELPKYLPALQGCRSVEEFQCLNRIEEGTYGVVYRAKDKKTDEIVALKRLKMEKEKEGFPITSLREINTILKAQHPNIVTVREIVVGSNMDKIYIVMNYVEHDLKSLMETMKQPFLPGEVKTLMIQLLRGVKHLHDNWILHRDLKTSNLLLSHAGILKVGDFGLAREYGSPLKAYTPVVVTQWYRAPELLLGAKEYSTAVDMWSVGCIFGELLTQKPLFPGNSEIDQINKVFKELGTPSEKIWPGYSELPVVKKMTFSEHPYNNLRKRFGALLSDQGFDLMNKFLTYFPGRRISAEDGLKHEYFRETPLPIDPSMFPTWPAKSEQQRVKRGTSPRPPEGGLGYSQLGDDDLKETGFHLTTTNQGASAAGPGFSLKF
The conditions noted are these: displacement of SNS-032-Atto590 probe (0.002 μM) from CDK11A-p58 (0.032 uM), fluorescence polarization.
In turn, `CC(C)c1ccc(Cl)c(-c2ccc3[nH]nc(NC(=O)[C@@H]4CCCNC4)c3c2)c1` [cpd 48, (3R)-N-{5-[2-Chloro-5-(propan-2-yl)phenyl]-1H-indazol-3-yl}piperidine-3-carboxamide hydrochloride] gave a DC50 of 310 nM.

Regarding `CN1CCC(C(=O)Nc2n[nH]c3ccc(-c4cccc(F)c4F)cc23)CC1` [cpd 99, N-[5-(2,3-Difluorophenyl)-1H-indazol-3-yl]-1-methylpiperidine-4-carboxamide hydrochloride], the DC50 turned out to be 173 nM. For `CC(C)CN1CCC(C(=O)Nc2n[nH]c3ccc(-c4c(Cl)cccc4Cl)cc23)CC1` [cpd 70, N-[5-(2,6-Dichlorophenyl)-1H-indazol-3-yl]-1-(2-methylpropyl)piperidine-4-carboxamide] the value was 136 nM; for `CCC(=O)c1ccc(Cl)c(-c2ccc3[nH]nc(NC(=O)[C@@H]4CCCNC4)c3c2)c1` [cpd 43, (3R)-N-[5-(2-Chloro-5-propanoylphenyl)-1H-indazol-3-yl]piperidine-3-carboxamide hydrochloride], 19 nM.

With `CN1CCC(C(=O)Nc2n[nH]c3ccc(-c4c(F)ccc(C#N)c4F)cc23)CC1` [compound 134, N-[5-(3-Cyano-2,6-difluorophenyl)-1H-indazol-3-yl]-1-methylpiperidine-4-carboxamide], the DC50 is 125 nM. With `CN1CCC(C(=O)Nc2n[nH]c3ccc(-c4ccc(C(N)=O)cc4)cc23)CC1` [cpd 109, N-[5-(4-Carbamoylphenyl)-1H-indazol-3-yl]-1-methylpiperidine-4-carboxamide hydrochloride] the figure was 967 nM. With `Nc1cccc(-c2ccc3[nH]nc(NC(=O)C4CCCNC4)c3c2)c1F` (stereo not shown) [cpd 11, N-[5-(3-Amino-2-fluorophenyl)-1H-indazol-3-yl]piperidine-3-carboxamide hydrochloride] the figure was 183 nM; with `Cc1cc(C#N)ccc1-c1ccc2[nH]nc(NC(=O)C3CCN(C)CC3)c2c1` [cpd 113, N-[5-(4-Cyano-2-methylphenyl)-1H-indazol-3-yl]-1-methylpiperidine-4-carboxamide hydrochloride], 534 nM. With `O=C1CCC(C(=O)Nc2n[nH]c3ccc(-c4c(Cl)cccc4Cl)cc23)CN1` (stereo not shown) [cpd 27, N-[5-(2,6-Dichlorophenyl)-1H-indazol-3-yl]-6-oxopiperidine-3-carboxamide] the figure was 338 nM; with `COc1ccc(-c2ccc3[nH]nc(NC(=O)[C@@H]4CCCNC4)c3c2)c(C(F)(F)F)c1` [cpd 31, (3R)-N-{5-[4-Methoxy-2-(trifluoromethyl)phenyl]-1H-indazol-3-yl}piperidine-3-carboxamide hydrochloride], 94 nM.
